# From PubChem BioAssay (NCI)
#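 Test compounds were applied to cells in 96-well plates for 48 hours at 5 doses. At the GI50, growth is halved. The concentration for full growth arrest is given as TGI.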
# Key:
# Assay in all cases: inhibition of tumour cell growth, NCI panel, 48 h
# 786-0 renal = test system: 786-0 renal
# A498 renal = test system: A498 renal
# A549 NSCLC = test system: A549 NSCLC
# ACHN renal = test system: ACHN renal
# BT-549 breast = test system: BT-549 breast
# CAKI-1 renal = test system: CAKI-1 renal
# CCRF-CEM leukemia = test system: CCRF-CEM leukemia
# COLO 205 colon = test system: COLO 205 colon
# DU-145 prostate = test system: DU-145 prostate
# EKVX NSCLC = test system: EKVX NSCLC
# HCC-2998 colon = test system: HCC-2998 colon
# HCT-116 colon = test system: HCT-116 colon
# HCT-15 colon = test system: HCT-15 colon
# HL-60(TB) leukemia = test system: HL-60(TB) leukemia
# HOP-62 NSCLC = test system: HOP-62 NSCLC
# HOP-92 NSCLC = test system: HOP-92 NSCLC
# HS 578T breast = test system: HS 578T breast
# HT29 colon = test system: HT29 colon
# IGROV1 ovarian = test system: IGROV1 ovarian
# K-562 leukemia = test system: K-562 leukemia
# KM12 colon = test system: KM12 colon
# LOX IMVI melanoma = test system: LOX IMVI melanoma
# M14 melanoma = test system: M14 melanoma
# MALME-3M melanoma = test system: MALME-3M melanoma
# MCF7 breast = test system: MCF7 breast
# MDA-MB-231 breast = test system: MDA-MB-231 breast
# MDA-MB-435 = test system: MDA-MB-435
# MDA-MB-468 breast = test system: MDA-MB-468 breast
# MOLT-4 leukemia = test system: MOLT-4 leukemia
# NCI-H226 lung = test system: NCI-H226 lung
# NCI-H23 lung = test system: NCI-H23 lung
# NCI-H460 lung = test system: NCI-H460 lung
# NCI-H522 lung = test system: NCI-H522 lung
# OVCAR-3 ovarian = test system: OVCAR-3 ovarian
# OVCAR-4 ovarian = test system: OVCAR-4 ovarian
# OVCAR-5 ovarian = test system: OVCAR-5 ovarian
# OVCAR-8 ovarian = test system: OVCAR-8 ovarian
# PC-3 prostate = test system: PC-3 prostate
# RPMI-8226 leukemia = test system: RPMI-8226 leukemia
# RXF 393 renal = test system: RXF 393 renal
# SF-268 CNS = test system: SF-268 CNS
# SF-295 CNS = test system: SF-295 CNS
# SF-539 CNS = test system: SF-539 CNS
# SK-MEL-2 melanoma = test system: SK-MEL-2 melanoma
# SK-MEL-28 melanoma = test system: SK-MEL-28 melanoma
# SK-MEL-5 melanoma = test system: SK-MEL-5 melanoma
# SK-OV-3 ovarian = test system: SK-OV-3 ovarian
# SN12C renal = test system: SN12C renal
# SNB-19 CNS = test system: SNB-19 CNS
# SNB-75 CNS = test system: SNB-75 CNS
# SR leukemia = test system: SR leukemia
# SW-620 colon = test system: SW-620 colon
# T-47D breast = test system: T-47D breast
# TK-10 renal = test system: TK-10 renal
# U251 CNS = test system: U251 CNS
# UACC-257 melanoma = test system: UACC-257 melanoma
# UACC-62 melanoma = test system: UACC-62 melanoma
# UO-31 renal = test system: UO-31 renal
smiles,measurement,setting,value
O=C1Nc2ccc(F)cc2/C1=C/c1cccc(OCc2ccccc2)c1,GI50,786-0 renal,14.5 µM
same,TGI,786-0 renal,29.5 µM
same,GI50,A498 renal,29.7 µM
same,TGI,A498 renal,> 100 µM
same,GI50,A549 NSCLC,18.6 µM
same,TGI,A549 NSCLC,75 µM
same,GI50,ACHN renal,13.5 µM
same,TGI,ACHN renal,26.5 µM
same,GI50,BT-549 breast,10.5 µM
same,TGI,BT-549 breast,23.4 µM
same,GI50,CAKI-1 renal,8.46 µM
same,TGI,CAKI-1 renal,21.7 µM
same,GI50,CCRF-CEM leukemia,12.4 µM
same,TGI,CCRF-CEM leukemia,35.2 µM
same,GI50,COLO 205 colon,17.8 µM
same,TGI,COLO 205 colon,35.5 µM
same,GI50,DU-145 prostate,14.8 µM
same,TGI,DU-145 prostate,31.4 µM
same,GI50,EKVX NSCLC,12.8 µM
same,TGI,EKVX NSCLC,27.8 µM
same,GI50,HCC-2998 colon,16.3 µM
same,TGI,HCC-2998 colon,31.7 µM
same,GI50,HCT-116 colon,10.5 µM
same,TGI,HCT-116 colon,25.9 µM
same,GI50,HCT-15 colon,11.9 µM
same,TGI,HCT-15 colon,29.3 µM
same,GI50,HL-60(TB) leukemia,11.7 µM
same,TGI,HL-60(TB) leukemia,34.1 µM
same,GI50,HOP-62 NSCLC,16.2 µM
same,TGI,HOP-62 NSCLC,37.1 µM
same,GI50,HOP-92 NSCLC,3.76 µM
same,TGI,HOP-92 NSCLC,17.1 µM
same,GI50,HS 578T breast,15.4 µM
same,TGI,HS 578T breast,57.9 µM
same,GI50,HT29 colon,17.8 µM
same,TGI,HT29 colon,35.4 µM
same,GI50,IGROV1 ovarian,13.4 µM
same,TGI,IGROV1 ovarian,27.1 µM
same,GI50,K-562 leukemia,10.5 µM
same,TGI,K-562 leukemia,31.8 µM
same,GI50,KM12 colon,13.7 µM
same,TGI,KM12 colon,32.4 µM
same,GI50,LOX IMVI melanoma,8.51 µM
same,TGI,LOX IMVI melanoma,28.7 µM
same,GI50,M14 melanoma,14.9 µM
same,TGI,M14 melanoma,31.5 µM
same,GI50,MALME-3M melanoma,15.5 µM
same,TGI,MALME-3M melanoma,29 µM
same,GI50,MCF7 breast,5.44 µM
same,TGI,MCF7 breast,21.8 µM
same,GI50,MDA-MB-231 breast,13.8 µM
same,TGI,MDA-MB-231 breast,29.2 µM
same,GI50,MDA-MB-435,15.1 µM
same,TGI,MDA-MB-435,29 µM
same,GI50,MDA-MB-468 breast,10.8 µM
same,TGI,MDA-MB-468 breast,23.6 µM
same,GI50,MOLT-4 leukemia,6.85 µM
same,TGI,MOLT-4 leukemia,30.2 µM
same,GI50,NCI-H226 lung,12.5 µM
same,TGI,NCI-H226 lung,27.1 µM
same,GI50,NCI-H23 lung,11.7 µM
same,TGI,NCI-H23 lung,27.5 µM
same,GI50,NCI-H460 lung,14.1 µM
same,TGI,NCI-H460 lung,28.7 µM
same,GI50,NCI-H522 lung,12.4 µM
same,TGI,NCI-H522 lung,27.3 µM
same,GI50,OVCAR-3 ovarian,11.8 µM
same,TGI,OVCAR-3 ovarian,24.7 µM
same,GI50,OVCAR-4 ovarian,9.89 µM
same,TGI,OVCAR-4 ovarian,30.2 µM
same,GI50,OVCAR-5 ovarian,16.5 µM
same,TGI,OVCAR-5 ovarian,30.6 µM
same,GI50,OVCAR-8 ovarian,20.1 µM
same,TGI,OVCAR-8 ovarian,57.8 µM
same,GI50,PC-3 prostate,13.8 µM
same,TGI,PC-3 prostate,30.3 µM
same,GI50,RPMI-8226 leukemia,10.7 µM
same,TGI,RPMI-8226 leukemia,30.7 µM
same,GI50,RXF 393 renal,13.7 µM
same,TGI,RXF 393 renal,29.8 µM
same,GI50,SF-268 CNS,14 µM
same,TGI,SF-268 CNS,34.2 µM
same,GI50,SF-295 CNS,15.2 µM
same,TGI,SF-295 CNS,34.2 µM
same,GI50,SF-539 CNS,14.8 µM
same,TGI,SF-539 CNS,28.1 µM
same,GI50,SK-MEL-2 melanoma,12.9 µM
same,TGI,SK-MEL-2 melanoma,27.8 µM
same,GI50,SK-MEL-28 melanoma,16 µM
same,TGI,SK-MEL-28 melanoma,30.1 µM
same,GI50,SK-MEL-5 melanoma,15.8 µM
same,TGI,SK-MEL-5 melanoma,29.8 µM
same,GI50,SK-OV-3 ovarian,16.7 µM
same,TGI,SK-OV-3 ovarian,39.4 µM
same,GI50,SN12C renal,13.4 µM
same,TGI,SN12C renal,26.8 µM
same,GI50,SNB-19 CNS,14.2 µM
same,TGI,SNB-19 CNS,29.2 µM
same,GI50,SNB-75 CNS,14.7 µM
same,TGI,SNB-75 CNS,43.3 µM
same,GI50,SR leukemia,4.83 µM
same,TGI,SR leukemia,23.1 µM
same,GI50,SW-620 colon,15.1 µM
same,TGI,SW-620 colon,29.4 µM
same,GI50,T-47D breast,12.1 µM
same,TGI,T-47D breast,62 µM
same,GI50,TK-10 renal,19.6 µM
same,TGI,TK-10 renal,41.9 µM
same,GI50,U251 CNS,12.6 µM
same,TGI,U251 CNS,32.6 µM
same,GI50,UACC-257 melanoma,16.8 µM
same,TGI,UACC-257 melanoma,36.2 µM
same,GI50,UACC-62 melanoma,10.4 µM
same,TGI,UACC-62 melanoma,22.5 µM
same,GI50,UO-31 renal,10 µM
same,TGI,UO-31 renal,21.7 µM
